The values below come from patent US20030216569A1, “Method of making HIV protease inhibitors” (priority 1993, published 2003).

One data set deals with HIV-1 protease (Human immunodeficiency virus type 1 group M subtype B, UniProt P04585). Put plainly: Fluorescence HIV-1 Protease Inhibitor Assay (Pandex). Type of data set: biochemical. Details: made in house; host or cells: E. coli K12 L507/pHP10D (NRRL B-18560). The settings on record: normalized to positive control (=1.0); * = a calculated average; read-out: Fluorescence Assay IC50 in ng/mL (converted).

For orientation: melting point means the temperature of the solid-liquid transition.

The structures appear in SMILES notation.

Regarding `CC(C)(C)NC(=O)c1ccccc1C[C@@H](O)[C@@H](CSc1ccc2ccccc2c1)NC(=O)c1cccc2[nH]ccc12` [Example 62, [2′R-(2′R*,3′S*)]-N-t-Butyl-2-[2′-hydroxy-3′-naphth-2-ylthiomethyl-4′-aza-5′-oxo-5′-(indol-4″-yl)pentyl] benzamide], the melting point fell in the range of 109 to 110 °C. The IC50 at HIV-1 protease is 350 nM.

In turn, `CC(C)(C)NC(=O)c1ccccc1C[C@@H](O)[C@@H](CSc1ccc2ccccc2c1)NC(=O)c1cccc2c1CCN2` [Example 65, [2′R-(2′R*,3′S*)]-N-t-Butyl-2-[2′-hydroxy-3′-naphth-2-ylthiomethyl-4′-aza-5′-oxo-5′-(indolin-4″-yl)pentyl] benzamide] displayed a melting point of 83 to 84 °C. Besides, the IC50 at HIV-1 protease is 687 nM.

Regarding `CC(C)(C)NC(=O)c1ccccc1C[C@@H](O)[C@@H](CSc1ccc2ccccc2c1)NC(=O)c1ccnc2ccccc12` [Example 66, [2′R-(2′R*,3′S*)]-N-t-Butyl-2-[2′-hydroxy-3′-naphth-2-ylthiomethyl-4′-aza-5′-oxo-5′-(quinolin-4″-yl)pentyl] benzamide], the melting point lay in the range of 89 to 92 °C. In addition, the IC50 at HIV-1 protease is 474 nM.

As to `Cc1c(C(=O)NC(CSc2ccc3ccccc3c2)C(O)Cc2ccccc2C(=O)NC(C)(C)C)cccc1[N+](=O)[O-]` (stereo not drawn) [Example 67, [2′R-(2′R*,3′S*)]-N-t-Butyl-2-[2′-hydroxy-3′-naphth-2-hiomethyl-4′-aza-5′-oxo-5′-(2″-methyl-3″-nitrophenyl)pentyl] benzamide], the melting point fell in the range of 80 to 81 °C. In addition, at HIV-1 protease, the IC50 was 927 nM.

`Cc1ccc([N+](=O)[O-])cc1C(=O)NC(CSc1ccc2ccccc2c1)C(O)Cc1ccccc1C(=O)NC(C)(C)C` (stereo not drawn) [Example 68, [2′R-(2′R*,3′S*)]-N-t-Butyl-2-[2′-hydroxy-3′-naphth-2-ylthiomethyl-4′-aza-5′-oxo-5′-(3″-nitro-6″-methylphenyl)pentyl] benzamide]: the melting point lay within 85 to 88 °C. The IC50 on HIV-1 protease is 17100 nM.

In turn, `Cc1c(C(=O)NC(CSc2ccc3ccccc3c2)C(O)Cc2ccccc2C(=O)NC(C)(C)C)ccc(O)c1O` (stereo not drawn) [Example 70, [2′R-(2′R*,3′S*)]-N-t-Butyl-2-[2′-hydroxy-3′-naphth-2-ylthiomethyl-4′-aza-5′-oxo-5′-(2″-methyl-3″,4″-dihydroxyphenyl)pentyl] benzamide] returned a melting point of 121 to 123 °C. Moreover, at HIV-1 protease, the IC50 was 183 nM.

In turn, `CC(C)(C)NC(=O)c1ccccc1CC(O)C(CSc1ccc2ccccc2c1)NC(=O)c1ccc(N)cc1Cl` (stereo not drawn) [Example 71, [2′R-(2′R*,3′S*)]-N-t-Butyl-2-[2′-hydroxy-3′-naphth-2-ylthiomethyl-4′-aza-5′-oxo-5′-(2″-chloro-4″-aminophenyl)pentyl] benzamide] displayed a melting point of 102 to 104 °C. At HIV-1 protease, the IC50 is 312 nM.

`CC(C)(C)NC(=O)c1ccccc1CC(O)C(CSc1ccc2ccccc2c1)NC(=O)c1ccc(N)c(O)c1` (stereo not drawn) [Example 73, [2′R-(2′R*,3′S*)]-N-t-Butyl-2-[2′-hydroxy-3′-naphth-2-ylthiomethyl-4′-aza-5′-oxo-5′-(3″-hydroxy-4″-aminophenyl)pentyl] benzamide] displayed a melting point of 119 to 122 °C. For the same compound, the IC50 on HIV-1 protease was 3480 nM.
